# Measurements: US20180327367A1, “MACROCYCLIC BROAD SPECTRUM ANTIBIOTICS” (priority 2015, published 2018)
# Read-outs that look alike come from different tables or passages of the source.
# Tests used:
# Type in all cases: cell-based
# [1] = system: Methicillin Resistant Staphylococcus aureus strain USA 300, NRS384; assay: Minimum inhibitory concentration, broth micro-dilution (CLSI), S. aureus; details: 35° C., 22 hours; for MIC: Staphylococcus aureus, MRSA / NRS 384 / USA300, 22 h
# Outline: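 Ten-point 2-fold series began at 4 μg/mL in protocol 2 and 0.5 μg/mL in protocol 3, in cation-adjusted MHB plus 0.002% Tween-80. Bacteria added to OD600 0.0005 final and incubated at 35° C for 22 hours per CLSI microdilution.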
# [2] = system: Escherichia coli MC4100 harboring the IMP4213 (E. coli IMP); assay: microbe, parasite or virus in culture; details: 35° C., 22 hours; for MIC: Escherichia coli, 22 h, read-out: MIC (μg/mL) E. coli IMP, E. coli MC4100 IMP4213, increased outer-membrane permeability
# Outline: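 Colonies grown 20 hours at 35° C were suspended in cation-adjusted Mueller Hinton Broth with 0.002% Tween-80. Cells were then added to 2-fold compound dilutions starting at 4 or 0.5 μg/mL, at OD600 0.0005.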
# [3] = system: Escherichia coli ATCC 25922; assay: Minimum inhibitory concentration, broth micro-dilution (CLSI), E. coli; details: 35° C., 22 hours; for MIC: Escherichia coli, ATCC25922, 22 h
# [4] = read-out: MIC (μg/mL) S. aureus, MRSA USA 300 NRS384
# [5] = read-out: MIC (μg/mL) E. coli, E. coli ATCC 25922
# [6] = MRSA USA 300 NRS384, read-out: MIC (μg/mL) S. aureus
# [7] = E. coli ATCC 25922, read-out: MIC (μg/mL) E. coli
Structure (SMILES),"MIC [1, 4] [µg/mL]",MIC [2] [µg/mL],"MIC [3, 5] [µg/mL]","MIC [1, 6] [µg/mL]","MIC [3, 7] [µg/mL]",MIC (μg/mL) S. aureus ([1]; MRSA USA 300 NRS384) [µg/mL],"MIC (μg/mL) E. coli IMP ([2]; E. coli MC4100 IMP4213, increased outer-membrane permeability) [µg/mL]",MIC (μg/mL) E. coli ([3]; E. coli ATCC 25922) [µg/mL]
CCCCCCCCCCCC(=O)N[C@@H](CC(=O)O)C(=O)N[C@@H](CN)C(=O)N(C)[C@@H]1C(=O)N[C@@H](C)C(=O)N[C@H](C(=O)NCC#N)Cc2ccc(OCCN)c(c2)-c2cc1ccc2OCCN [Compound 387],0.25,0.38,64,,,,,
Cc1cc(C2CC(c3ccccc3)C2)ccc1C(=O)N[C@@H](CCN)C(=O)N(C)[C@@H]1C(=O)N[C@@H](C)C(=O)N[C@H](C(=O)NCC#N)Cc2ccc(OCCN)c(c2)-c2cc1ccc2OCCN (stereo partly drawn) [Compound 441],,0.016,,0.063,1,,,
CCCCCCCCCCCC(=O)N(C)[C@@H](CCN)C(=O)N(C)[C@@H]1C(=O)N[C@@H](C)C(=O)N[C@H](C(=O)NCC#N)Cc2ccc(OCCN)c(c2)-c2cc1ccc2OCCN [Compound 398],,0.13,,0.13,16,,,
CCCCCCCc1cc(C)c(C(=O)N[C@@H](CCN)C(=O)N(C)[C@@H]2C(=O)N[C@@H](C)C(=O)N[C@H](C(=O)NCC#N)Cc3ccc(OCCN)c(c3)-c3cc2ccc3OCCN)c(C)c1 [Compound 189],,0.023,,0.031,0.19,,,
CCCCCCCCc1ccc(C(=O)N[C@H](C)C(=O)N(C)[C@@H]2C(=O)N[C@@H](C)C(=O)N[C@H](C(=O)NCC#N)Cc3ccc(OCCN)c(c3)-c3cc2ccc3OCCN)c(C)c1 [Compound 251],,4,,4,8,,,
C[C@@H]1NC(=O)[C@@H](N(C)C(=O)[C@H](CCCCN)NC(=O)c2ccc(-c3ccc(Cl)cc3)cc2)c2ccc(O)c(c2)-c2cc(ccc2O)C[C@@H](C(=O)N[C@@H](C)C#N)NC1=O [Compound 417],,4,,13,> 64,,,
CCCCCCc1ccc(C(=O)N[C@@H](CCN)CC(=O)N(C)[C@@H]2C(=O)N[C@@H](C)C(=O)N[C@H](C(=O)NCC#N)Cc3ccc(OCCN)c(c3)-c3cc2ccc3OCCN)c(C)c1 [Compound 513],,0.13,,0.19,16,,,
CCCCCCc1ccc(C(=O)N[C@@H](CCNC=N)C(=O)N(C)[C@@H]2C(=O)N[C@@H](C)C(=O)N[C@H](C(=O)NCC#N)Cc3ccc(O)c(c3)-c3cc2ccc3O)c(C)c1 [Compound 467],1,1,> 64,,,,,
CCCCCCCCCCCCCC(=O)N[C@@H](CCN)C(=O)N(C)[C@@H]1C(=O)N[C@@H](C)C(=O)N[C@H](C(=O)NCC#N)Cc2ccc(OCC(=O)O)c(c2)-c2cc1ccc2OCCN [Compound 327],,0.0078,,0.25,2,,,
CCCCCCCCCCCCCC(=O)N(C)[C@@H]1C(=O)N[C@@H](C)C(=O)N[C@H](C(=O)N[C@@H](C)C#N)Cc2ccc(OCCN)c(c2)-c2cc1ccc2OCCN [Compound 474],,0.19,,2,4,,,
CCCCCCCCNC(=O)N[C@@H](CCN)C(=O)N(C)[C@@H]1C(=O)N[C@@H](C)C(=O)N[C@H](C(=O)NCC#N)Cc2ccc(OCCN)c(c2)-c2cc1ccc2OCCN [Compound 402],,0.19,,0.38,32,,,
CCCCCCCc1ccc(C(=O)N[C@@H](CCN)C(=O)N(C)[C@@H]2C(=O)N[C@@H](C)C(=O)N[C@H](C(=O)NCC#N)Cc3ccc(O)c(c3)-c3cc2ccc3OCCN)c(C)c1 [Compound 314],,0.023,,0.078,0.44,,,
"CCCCCCCCCCCNC(=O)C(CCN)C(=O)N(C)[C@@H]1C(=O)N[C@@H](C)C(=O)N[C@H](C(=O)NCC#N)Cc2ccc(OCCN)c(c2)-c2cc1ccc2OCCN (single isomer, unassigned) [Compound 497-P2]",,,,,,1,0.38,24
